# Test results published in patent EP0257993B1, “Nucleic acid fragment encoding herbicide resistant plant acetolactate synthase” (priority 1986, dated 1988).
# Read-outs that look alike come from different tables or passages of the source.
# Tests used:
# tobacco callus [1] = conditions: Kanamycin, 50 mg/L
# Protocol: For plant cell transformations, standard aseptic techniques for the manipulation of sterile media and axenic plant/bacterial cultures were followed, including the use of a laminar flow hood for all transfers. Recipes for media are given in Example VI. Potted tobacco plants for leaf disk infections were grown in a growth chamber maintained for a 12 hr. 24°C day, 12 hr, 20°C night cycle, with approximately 80% relative humidity, under mixed cool white fluorescent and incandescent lights. Tobacco leaf disk infections were carried out essentially by the method of Horsch et al. (1985) Science 227, 1229.
# Young leaves, not fully expanded and approximately 4-6 inches in length, were harvested with a scalpel from approximately 4-6 week old tobacco plants (Nicotiana tabacum var. Xanthi). The leaves were surface sterilized for 30 minutes by submerging them in approximately 500 ml of a 10% Chlorox, 0.1% SDS solution and then rinsed 3 times with sterile deionized water. Leaf disks, 6 mm in diameter, were prepared from whole leaves using a sterile paper punch.
# Leaf disks were inoculated by submerging them for several minutes in 20 ml of a 1:10 dilution of an overnight Agrobacterium culture carrying the plasmid GCKNT13. Agrobacterium cultures were started by inoculating 10 ml of YEB broth with a single bacterial colony removed form a R-agar plate. The culture was grown for approximately 17-20 hours in 18 mm glass culture tubes in a New Brunswick platform shaker maintained at 28°C.
# After inoculation, the leaf disks were placed in petri dishes containing CN agar medium. The dishes were sealed with paraflm and incubated under mixed fluorescent and "Gro and Sho" plant light (General Electric) for 2-3 days in a culture room maintained at approximately 25°C.
# […] Cefotaxime was kept as a frozen 100 mg/ml stock solution and added aseptically (filter sterilized through a 0.45 µm filter) to the media after autoclaving. A fresh kanamycin stock (50 mg/ml) was made for each use and was filter sterilized into the autoclaved media.
# Leaf disks were incubated under the growth conditions described above for 3 weeks and then transferred to fresh media of the same composition.
# Root formation on selective and non-selective media was recorded within 3 weeks.
# Callus growth on selective and non-selective media was recorded within 3 weeks.
# [2] = test system: Brassica napus callus tissue; experiment: Kanamycin selection of Brassica napus hypocotyl explants; type: cell-based, Brassica napus cv. Olga; conditions: of 100 wound sites; kanamycin 100 mg/L
# [3] = test system: Cells of N.tabacum cv. W38; experiment: Level of chlorsulfuron resistance in transformed N. tabacum colonies; type: cell-based
# Brassica napus = Brassica napus plants sprayed with chlorsulfuron; type: in vivo, Brassica napus cv. Olga
# tobacco callus [4] = experiment: Growth of tobacco mutant callus (C3, S4, Hra) on herbicide; type: cell-based, Nicotiana tabacum var. Xanthi; conditions: Hra cell line
# Protocol: (§1) Callus cultures of sensitive tobacco (Nicotiana tabacum var. Xanthi) were exposed to sulfometuron methyl at 2 ppb according to the method described by Chaleff, U.S. 4,443,971. […] Plants were regenerated from Hra callus cultures. […] ALS activity in extracts of leaves of wild type and homozygous Hra mutant tobacco plants was determined.
# ALS [5] = type: biochemical, Nicotiana tabacum; conditions: C3 and S4 lines
# Protocol: as §1
# ALS [6] = experiment: ALS assay, wild type Brassica napus; type: biochemical
# Protocol: Keep on ice. • 2. […] 16K rpm, 4°C. • 4. […] Incubate on ice for 30 minutes. • 6. […] Decant supernatant. • 7. Resuspend pellet in 1 ml cold column buffer. • 8. […] Let this run through column. • 9. Elute proteins with 2X volume of extract loaded. […] Incubate reaction for 1 hour, 30°C. • 12. […] Spin in microfuge 5 minutes. • 13. […] Read at OD 530.
smiles,measurement,setting,value
NC[C@H]1O[C@H](O[C@H]2[C@H](O)[C@@H](O[C@H]3O[C@H](CO)[C@@H](O)[C@H](N)[C@H]3O)[C@H](N)C[C@@H]2N)[C@H](O)[C@@H](O)[C@@H]1O [Kanamycin],Number of transformed shoot explants producing callus on selective and non-selective media,"tobacco callus [1]; EXP. #1, GV3850",0/10
same,Number of transformed shoot explants producing callus on selective and non-selective media,"tobacco callus [1]; EXP. #1, GVKK",8/13
same,Number of transformed shoot explants producing callus on selective and non-selective media,"tobacco callus [1]; EXP. #1, GVKNT13",53/62
same,Number of transformed shoot explants producing callus on selective and non-selective media,"tobacco callus [1]; Exp. #2, GV3850",0/25
same,Number of transformed shoot explants producing callus on selective and non-selective media,"tobacco callus [1]; Exp. #2, GVKK",16/23
same,Number of transformed shoot explants producing callus on selective and non-selective media,"tobacco callus [1]; Exp. #2, GVKNT13",81/102
same,wound sites that developed callus tissue resistant to kanamycin,[2],20
COc1nc(C)nc(NC(=O)NS(=O)(=O)c2ccccc2Cl)n1 [chlorsulfuron],chlorsulfuron resistance conferred in transformed tobacco calluses,[3]; 8.3 kb DNA fragment (SURB-Hra),up to 2000 ppb
same,concentration colonies could tolerate,[3]; colonies derived from co-cultivation with A. tumefaciens containing pAGS152,up to 2000 ppb
same,concentration at which colonies are sensitive,[3]; wild type colonies,2 ppb
same,growth of plants sprayed with chlorsulfuron,"Brassica napus; Ro #1, 0.3 ppm",++
same,growth of plants sprayed with chlorsulfuron,"Brassica napus; Ro #1, 1 ppm",++
same,growth of plants sprayed with chlorsulfuron,"Brassica napus; Ro #1, 3 ppm",++
same,growth of plants sprayed with chlorsulfuron,"Brassica napus; Ro #1, 10 ppm",+
same,growth of plants sprayed with chlorsulfuron,"Brassica napus; Ro #2, 0.3 ppm",++
same,growth of plants sprayed with chlorsulfuron,"Brassica napus; Ro #2, 1 ppm",+
same,growth of plants sprayed with chlorsulfuron,"Brassica napus; Ro #2, 3 ppm",-
same,growth of plants sprayed with chlorsulfuron,"Brassica napus; Ro #2, 10 ppm",-
same,growth of plants sprayed with chlorsulfuron,"Brassica napus; Ro #3, 0.3 ppm",++
same,growth of plants sprayed with chlorsulfuron,"Brassica napus; Ro #3, 1 ppm",+
same,growth of plants sprayed with chlorsulfuron,"Brassica napus; Ro #3, 3 ppm",+
same,growth of plants sprayed with chlorsulfuron,"Brassica napus; Ro #3, 10 ppm",-
same,growth of plants sprayed with chlorsulfuron,"Brassica napus; Ro #4, 0.3 ppm",++
same,growth of plants sprayed with chlorsulfuron,"Brassica napus; Ro #4, 1 ppm",+
same,growth of plants sprayed with chlorsulfuron,"Brassica napus; Ro #4, 3 ppm",-
same,growth of plants sprayed with chlorsulfuron,"Brassica napus; Ro #4, 10 ppm",-
same,growth of plants sprayed with chlorsulfuron,"Brassica napus; Ro #5, 0.3 ppm",+++
same,growth of plants sprayed with chlorsulfuron,"Brassica napus; Ro #5, 1 ppm",++
same,growth of plants sprayed with chlorsulfuron,"Brassica napus; Ro #5, 3 ppm",++
same,growth of plants sprayed with chlorsulfuron,"Brassica napus; Ro #5, 10 ppm",+
same,growth of plants sprayed with chlorsulfuron,"Brassica napus; untransformed, 0.3 ppm",++
same,growth of plants sprayed with chlorsulfuron,"Brassica napus; untransformed, 1 ppm",+
same,growth of plants sprayed with chlorsulfuron,"Brassica napus; untransformed, 3 ppm",-
same,growth of plants sprayed with chlorsulfuron,"Brassica napus; untransformed, 10 ppm",-
same,cross resistance of cell line,tobacco callus [4],cross resistant
same,resistance of ALS enzyme activity compared with ALS from wild type,ALS [5],one-hundred fold
same,Percent Uninhibited ALS Activity,ALS [6]; 1ppb,86.6%
same,Percent Uninhibited ALS Activity,ALS [6]; 10ppb,28.2%
same,Percent Uninhibited ALS Activity,ALS [6]; 100ppb,10.1%
same,Percent Uninhibited ALS Activity,ALS [6]; 1000ppb,7.6%
